Laboratory results: PMC8920929 (The Journal of Biological Chemistry, 2022)
Where a chain is given by its changes, count along the chain named.

Tests used:
[1] = test system: TRPV3; conditions: read-out: EC50, activation of TRPV3; ref [23], [30]; cited from earlier work
[2] = target: T1, TRPV3-I505A (Homo sapiens, UniProt Q8NET8, I505A); assay: Whole-cell and single-channel recordings of the TRPV3-I505A mutant; format: cell-based
T1 sequence (Q8NET8 1-790 I505A): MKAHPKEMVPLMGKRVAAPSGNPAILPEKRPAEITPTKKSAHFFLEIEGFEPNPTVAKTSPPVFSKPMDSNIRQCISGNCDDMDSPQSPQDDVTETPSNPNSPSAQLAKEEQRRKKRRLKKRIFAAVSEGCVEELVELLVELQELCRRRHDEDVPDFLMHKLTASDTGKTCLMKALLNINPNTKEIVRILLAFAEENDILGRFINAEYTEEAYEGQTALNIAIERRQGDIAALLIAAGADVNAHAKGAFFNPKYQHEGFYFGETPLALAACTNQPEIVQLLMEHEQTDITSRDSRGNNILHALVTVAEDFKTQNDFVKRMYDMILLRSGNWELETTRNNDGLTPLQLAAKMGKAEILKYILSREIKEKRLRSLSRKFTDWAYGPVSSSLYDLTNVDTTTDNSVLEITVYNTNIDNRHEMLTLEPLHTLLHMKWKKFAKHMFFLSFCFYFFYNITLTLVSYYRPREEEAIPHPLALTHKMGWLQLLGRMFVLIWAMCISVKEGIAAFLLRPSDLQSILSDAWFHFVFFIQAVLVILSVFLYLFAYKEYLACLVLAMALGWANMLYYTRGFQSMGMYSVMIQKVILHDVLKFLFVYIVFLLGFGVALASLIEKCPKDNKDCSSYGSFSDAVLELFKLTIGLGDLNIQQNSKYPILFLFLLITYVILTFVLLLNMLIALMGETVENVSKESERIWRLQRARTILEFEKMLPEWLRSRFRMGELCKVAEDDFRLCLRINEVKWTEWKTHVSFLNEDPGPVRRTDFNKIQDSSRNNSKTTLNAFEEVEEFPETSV

[3] = target: T2, TRPV3-R509A (Homo sapiens, UniProt Q8NET8, R509A); assay: Whole-cell and single-channel recordings of the TRPV3-R509A mutant; format: cell-based
T2 sequence (Q8NET8 1-790 R509A): T1 sequence (Q8NET8 1-790 I505A) with A505I, R509A

[4] = target: T3, human TRPV3 (Homo sapiens, UniProt Q8NET8); assay: Inside-out single channel recordings of TRPV3; format: biochemical
T3 sequence (Q8NET8 1-790): T1 sequence (Q8NET8 1-790 I505A) with A505I

[5] = +80 mV, carvacrol 300 μM or 2-APB 50 μM alone

- EC50 [2]: 3510 ± 440 µM
- right shift of channel activation versus WT TRPV3 ([2]; I505A versus WT): over 10 fold
- EC50 [3]: 2930 ± 110 µM
- right shift of channel activation versus WT TRPV3 ([3]; R509A versus WT): over 10 fold
- sensitivity of TRPV3 R509A mutant channel ([3]; macroscopic and single-channel current levels): decreased the channel sensitivity
- single-channel open frequency (Freq) [4, 5]: 59.21 ± 11.32 Hz
- single-channel open probability (Po) [4, 5]: 0.72 ± 0.05
- unitary conductance of TRPV3 single channels ([4]; inside-out patches, -80 mV to +80 mV, carvacrol 300 μM, 2-APB 50 μM, n = 4): 182.0 ± 6.4 pS
SMILES: Cc1ccc(C(C)C)cc1O [carvacrol, 5-Isopropyl-2-methylphenol]
- EC50 [1]: 497 ± 70 µM
- activation of TRPV3 I505A mutant channel ([2]; carvacrol 0.3-3.0 mM or 50 μM 2-APB): weak activation of TRPV3 I505A at high concentration of 3 mM
